# Assay results from article PMC2213263 (The Journal of Experimental Medicine, 2005).
# Tested on: PBMCs and HCV peptide-specific T cell lines from HCV-infected subjects
# Assay type: cell-based, human
Substance,"T cell response to peptide, in words",response to positive control
HSKRKCDEL,no detectable response,
phytohemagglutinin,,uniformly positive
